Data on seven compounds can be found in ChEMBL document CHEMBL5385930, “Synthesis, Structure-Activity Relationship Study, Bioactivity, and Nephrotoxicity Evaluation of the Proposed Structure of the Cyclic Lipodepsipeptide Brevicidine B” (J Nat Prod, 2024).

Values after ≈ are worked out from the molar mass of the structure shown. Positions of bridges follow the written chain, without caps; N, C: chain ends. Non-standard residues stand in square brackets, D forms with d. Residues, ends and D or L forms follow the SMILES beside them. ξ: configuration not given here. *: point of attachment. Hexanoyl(4ξ-Me) = CCC(C)CCC(=O)*; dOrn = NCCC[C@@H](N)C(=O)O; Orn = NCCC[C@H](N)C(=O)O

For orientation: MIC means the least concentration at which growth counts as inhibited.

Type in all cases: functional
The test system of experiment [1] is Escherichia coli. The experiment is described as follows: Antibacterial activity against Escherichia coli ATCC 25922 assessed as reduction in bacterial growth by microbroth dilution assay. (Dilution methods test growth across graded concentrations, often in twofold steps.)
The test system of experiment [2] is Acinetobacter baumannii. The experiment in a line: Antibacterial activity against Acinetobacter baumannii ATCC 19606 assessed as reduction in bacterial growth by microbroth dilution assay.
The test system of a further experiment is Pseudomonas aeruginosa. The experiment is described as follows: Antibacterial activity against Pseudomonas aeruginosa ATCC 27853 assessed as reduction in bacterial growth by microbroth dilution assay.
Experiment [3] has as its system Klebsiella pneumoniae. The experiment is described as follows: Antibacterial activity against Klebsiella pneumoniae ATCC 33495 assessed as reduction in bacterial growth by microbroth dilution assay.
In experiment [4] the test system is Klebsiella pneumoniae. The experiment is described as follows: Antibacterial activity against Klebsiella pneumoniae ATCC 700603 assessed as reduction in bacterial growth by microbroth dilution assay.
Experiment [5] relates to Escherichia coli. The experiment in a line: Antibacterial activity against multidrug resistant Escherichia coli MS834 harbouring mcr-1 assessed as reduction in bacterial growth by microbroth dilution assay.
The test system of experiment [6] is Klebsiella pneumoniae. The experiment in a line: Antibacterial activity against pandrug-resistant Klebsiella pneumoniae MS6671 assessed as reduction in bacterial growth by microbroth dilution assay.
Experiment [7] deals with Acinetobacter baumannii. The experiment in a line: Antibacterial activity against multidrug resistant Acinetobacter baumannii AB5075 assessed as reduction in bacterial growth by microbroth dilution assay.
A further experiment relates to Enterococcus faecalis. The experiment is described as follows: Antibacterial activity against vancomycin resistant Enterococcus faecalis V583 assessed as reduction in bacterial growth by microbroth dilution assay.
Experiment [8] deals with Staphylococcus aureus. The experiment in a line: Antibacterial activity against Staphylococcus aureus ATCC 25923 assessed as reduction in bacterial growth by microbroth dilution assay.
The test system of experiment [9] is Staphylococcus aureus. The experiment in a line: Antibacterial activity against methicillin-resistant Staphylococcus aureus […] assessed as reduction in bacterial growth by microbroth dilution assay.

Turning to `CCC(C)CCC(=O)N[C@H](CC(N)=O)C(=O)N[C@@H](Cc1ccc(Br)cc1)C(=O)N[C@H](Cc1c[nH]c2ccccc12)C(=O)N[C@H](CCCN)C(=O)N[C@@H](CCCN)C(=O)NCC(=O)N[C@H](CCCN)C(=O)N[C@@H](Cc1c[nH]c2ccccc12)C(=O)N[C@@H]1C(=O)N[C@@H]([C@@H](C)CC)C(=O)NCC(=O)N[C@@H](CO)C(=O)O[C@@H]1C` (stereo partly drawn), the MIC in the experiment on Escherichia coli [1] is 32 µg/mL (≈ 20.2 µM); with Acinetobacter baumannii [2] it was more than 32 µg/mL; in the experiment on Pseudomonas aeruginosa, more than 32 µg/mL; with Klebsiella pneumoniae [3] it was more than 32 µg/mL; in the experiment on Klebsiella pneumoniae [4], more than 32 µg/mL; with Escherichia coli [5], more than 32 µg/mL. The MIC with Klebsiella pneumoniae [6], in the experiment with Acinetobacter baumannii [7], with Enterococcus faecalis, with Staphylococcus aureus [8] and in the experiment on Staphylococcus aureus [9] was more than 32 µg/mL each time.

On to `CCC(C)CCC(=O)N[C@H](CC(N)=O)C(=O)N[C@H](CCCCN)C(=O)N[C@H](Cc1c[nH]c2ccccc12)C(=O)N[C@H](CCCN)C(=O)N[C@@H](CCCN)C(=O)NCC(=O)N[C@H](CCCN)C(=O)N[C@@H](Cc1c[nH]c2ccccc12)C(=O)N[C@@H]1C(=O)N[C@@H]([C@@H](C)CC)C(=O)NCC(=O)N[C@@H](CO)C(=O)O[C@@H]1C` (stereo partly drawn), for which the minimal inhibitory concentration (MIC) with Escherichia coli [1] is more than 32 µg/mL; with Acinetobacter baumannii [2], more than 32 µg/mL; in the experiment on Pseudomonas aeruginosa it was 16 µg/mL (≈ 10.8 µM); in the experiment with Klebsiella pneumoniae [3], more than 32 µg/mL; in the experiment with Klebsiella pneumoniae [4], more than 32 µg/mL; in the experiment on Escherichia coli [5], more than 32 µg/mL. For the same compound, the MIC with Klebsiella pneumoniae [6], with Acinetobacter baumannii [7], with Enterococcus faecalis, with Staphylococcus aureus [8] and in the experiment with Staphylococcus aureus [9] was more than 32 µg/mL throughout.

For the compound `CCC(C)CCC(=O)N[C@H](CC(N)=O)C(=O)N[C@H](Cc1c[nH]c2ccccc12)C(=O)N[C@H](Cc1c[nH]c2ccccc12)C(=O)N[C@H](CCCN)C(=O)N[C@@H](CCCN)C(=O)NCC(=O)N[C@H](CCCN)C(=O)N[C@@H](Cc1c[nH]c2ccccc12)C(=O)N[C@@H]1C(=O)N[C@@H]([C@@H](C)CC)C(=O)NCC(=O)N[C@@H](CO)C(=O)O[C@@H]1C` (stereo partly drawn) ({Hexanoyl(4ξ-Me)}-[dN][dW][dW][dOrn][Orn]G[dOrn]WTIGS; ester 9-C), the MIC with Escherichia coli [1] was 32 µg/mL (≈ 20.7 µM); in the experiment with Acinetobacter baumannii [2] it was more than 32 µg/mL; in the experiment with Pseudomonas aeruginosa it was 32 µg/mL (≈ 20.7 µM); in the experiment with Klebsiella pneumoniae [3] it was 16 µg/mL (≈ 10.4 µM); in the experiment with Klebsiella pneumoniae [4], 32 µg/mL (≈ 20.7 µM); with Escherichia coli [5] it was 32 µg/mL (≈ 20.7 µM). Also, the MIC in the experiment with Klebsiella pneumoniae [6] is more than 32 µg/mL; in the experiment with Acinetobacter baumannii [7], 32 µg/mL (≈ 20.7 µM); in the experiment on Enterococcus faecalis, more than 32 µg/mL; in the experiment on Staphylococcus aureus [8], more than 32 µg/mL; in the experiment on Staphylococcus aureus [9], more than 32 µg/mL.

On to POLYMYXIN B, for which the MIC in the experiment with Escherichia coli [1] was found to be 0.125 µg/mL; with Acinetobacter baumannii [2], 0.5 µg/mL; with Pseudomonas aeruginosa it was 1 µg/mL; in the experiment on Klebsiella pneumoniae [3], 0.5 µg/mL; in the experiment with Klebsiella pneumoniae [4], 0.25 µg/mL; with Escherichia coli [5], 4 µg/mL. The MIC came to 32 µg/mL in the experiment on Klebsiella pneumoniae [6] and 0.5 µg/mL with Acinetobacter baumannii [7].

`C[C@@H](O)[C@H]1C(=O)N2C(C(=O)O)=C(S[C@@H]3CN[C@H](C(=O)N(C)C)C3)[C@H](C)[C@H]12` [MEROPENEM]: the MIC worked out at 0.031 µg/mL (≈ 0.0808 µM) with Escherichia coli [1]; 0.5 µg/mL (≈ 1.3 µM) with Acinetobacter baumannii [2]; 0.25 µg/mL (≈ 0.652 µM) in the experiment on Pseudomonas aeruginosa; 0.062 µg/mL (≈ 0.162 µM) in the experiment with Klebsiella pneumoniae [3]; 0.062 µg/mL (≈ 0.162 µM) in the experiment with Klebsiella pneumoniae [4]; 0.062 µg/mL (≈ 0.162 µM) with Escherichia coli [5]. In addition, the MIC in the experiment on Klebsiella pneumoniae [6] and in the experiment with Acinetobacter baumannii [7] was 32 µg/mL (≈ 83.4 µM) each time.

For COLISTIN, the MIC with Escherichia coli [1] came out at 0.125 µg/mL; with Acinetobacter baumannii [2], 0.5 µg/mL; with Pseudomonas aeruginosa, 1 µg/mL; in the experiment on Klebsiella pneumoniae [3], 0.25 µg/mL; in the experiment on Klebsiella pneumoniae [4], 0.25 µg/mL; in the experiment on Escherichia coli [5] it was 4 µg/mL. The MIC in the experiment on Klebsiella pneumoniae [6] was 32 µg/mL; in the experiment with Acinetobacter baumannii [7], 1 µg/mL.

Take `CN[C@H](CC(C)C)C(=O)N[C@H]1C(=O)N[C@@H](CC(N)=O)C(=O)N[C@H]2C(=O)N[C@H]3C(=O)N[C@H](C(=O)N[C@H](C(=O)O)c4cc(O)cc(O)c4-c4cc3ccc4O)[C@H](O)c3ccc(c(Cl)c3)Oc3cc2cc(c3O[C@@H]2O[C@H](CO)[C@@H](O)[C@H](O)[C@H]2O[C@H]2C[C@](C)(N)[C@H](O)[C@H](C)O2)Oc2ccc(cc2Cl)[C@H]1O` [VANCOMYCIN]: the MIC in the experiment with Enterococcus faecalis was determined as 32 µg/mL (≈ 22.1 µM).
